# From patent publication US20160368879A1, “PHOTOACID GENERATOR, AND RESIN COMPOSITION FOR PHOTOLITHOGRAPHY” (SAN-APRO LTD., priority 2013, published 2016)
# Legend:
# Type in all cases: physicochemical
# [1] = Solvent solubility (butyl acetate, toluene or PGMEA); conditions: 25° C.
# Procedure: In a test tube, 0.1 g of the synthesized photoacid generator was placed, and an organic solvent (butyl acetate, toluene or PGMEA) was added thereto in 0.2 g portions under a condition where the temperature was adjusted to 25° C. until the photoacid generator was completely dissolved. In this connection, in the case where the photoacid generator was not completely dissolved even when 20 g of the solvent was added, the photoacid generator was evaluated as one that was not dissolved.
# [2] = Molar extinction coefficient of i-line (365 nm), UV-visible absorbance in acetonitrile; conditions: 0.25 mmol/L in acetonitrile, cell length 1 cm
# Procedure: The synthesized photoacid generator was diluted to 0.25 mmol/L with acetonitrile, and using an ultraviolet-visible spectrophotometer (UV-2550 available from SHIMADZU CORPORATION), the absorbance in a range of 200 nm to 500 nm was measured with a cell having an optical path length (a cell length) of 1 cm. The molar extinction coefficient of i-line (365 nm) (ε365) was calculated from the following equation.
# [In the equation, […] represents the absorbance at 365 nm.]
# [3] = Thermal decomposition temperature (TG/DTA, 2% weight reduction); conditions: point of 2% weight reduction; 10° C./minute from 30° C. to 500° C.; nitrogen atmosphere
# Procedure: The synthesized photoacid generator was measured for the change in weight under a temperature increasing condition of 10° C./minute from 30° C. to 500° C. under a nitrogen atmosphere using a thermal gravimetric/differential thermal analyzer (TG/DTA 6200, available from Seiko Instruments Inc.), and a point where the weight was reduced by 2% was defined as the thermal decomposition temperature.
Solvent solubility PGMEA [1],Solvent solubility Butyl acetate [1],Solvent solubility Toluene [1],Molar extinction coefficient [2],Thermal decomposition temperature [3],Structure (SMILES)
4 wt %,4.5 wt %,7 wt %,3000 L/mol/cm,240 °C,"O=C(Cc1ccccc1)c1ccc2c3c(cccc13)C(=O)N(OS(=O)(=O)C(F)(F)F)C2=O [Example A-4, 4-phenylacetyl-1,8-naphthalimide trifluoromethanesulfonate]"
1.8 wt %,1.7 wt %,2 wt %,16300 L/mol/cm,239 °C,"CC(C)Oc1ccc2c3c(cccc13)C(=O)N(OS(=O)(=O)CC13CCC(CC1=O)C3(C)C)C2=O (stereo not drawn) [Example A-41, 4-isopropoxy-1,8-naphthalimide-(+)-10-camphorsulfonate]"
4 wt %,5.5 wt %,5.5 wt %,20000 L/mol/cm,242 °C,"O=C1c2cccc3c(Sc4ccccc4)ccc(c23)C(=O)N1OS(=O)(=O)c1c(F)c(F)c(F)c(F)c1F [Example A-27, 4-phenylthio-1,8-naphthalimide pentafluorobenzenesulfonate]"
7.5 wt %,12 wt %,10 wt %,1300 L/mol/cm,245 °C,"CC1(C)C2CC[C@@]1(CS(=O)(=O)ON1C(=O)c3cccc4cc(OC(=O)c5c(F)c(F)c(F)c(F)c5F)cc(c34)C1=O)C(=O)C2 [Example A-52, 3-pentafluorobenzoyloxy-1,8-naphthalimide-(+)-10-camphorsulfonate]"
5.5 wt %,5.5 wt %,6 wt %,5500 L/mol/cm,241 °C,"C[Si](C)(C)c1ccc2c3c(cccc13)C(=O)N(OS(=O)(=O)c1c(F)c(F)c(F)c(F)c1F)C2=O [Example A-38, 4-trimethylsilyl-1,8-naphthalimide pentafluorobenzenesulfonate]"
6 wt %,5 wt %,10 wt %,6000 L/mol/cm,220 °C,"O=C1c2cccc3c(Cl)ccc(c23)C(=O)N1OS(=O)(=O)C(F)(F)F [Example A-19, 4-chloro-1,8-naphthalimide trifluoromethanesulfonate]"
5 wt %,5 wt %,5.5 wt %,40 L/mol/cm,241 °C,"CC1(C)C2CCC1(CS(=O)(=O)ON1C(=O)c3cccc4c(C(F)(F)C(F)(F)C(F)(F)C(F)(F)F)ccc(c34)C1=O)C(=O)C2 (stereo not drawn) [Example A-56, 4-(nonafluorobutyl)-1,8-naphthalimide-(+)-10-camphorsulfonate]"
14 wt %,17 wt %,16 wt %,12000 L/mol/cm,245 °C,"O=C1c2cccc3c(Oc4c(F)c(F)c(F)c(F)c4F)ccc(c23)C(=O)N1OS(=O)(=O)C(F)(F)F [Example A-5, 4-pentafluorophenoxy-1,8-naphthalimide trifluoromethanesulfonate]"
8 wt %,11 wt %,9 wt %,1500 L/mol/cm,232 °C,"CCCCC(CC)C(=O)Oc1cc2c3c(cccc3c1)C(=O)N(OS(=O)(=O)CC13CCC(CC1=O)C3(C)C)C2=O (stereo not drawn) [Example A-49, 3-(2-ethylhexanoyloxy)-1,8-naphthalimide-(+)-10-camphorsulfonate]"
>30 wt %,>30 wt %,>30 wt %,1500 L/mol/cm,231 °C,"CCCCC(CC)C(=O)Oc1cc2c3c(cccc3c1)C(=O)N(OS(=O)(=O)C(F)(F)F)C2=O (centres unmarked) [Example A-9, 3-(2-ethylhexanoyloxy)-1,8-naphthalimide trifluoromethanesulfonate]"
4 wt %,4.5 wt %,8 wt %,8500 L/mol/cm,230 °C,"O=C1c2cccc3c(Br)ccc(c23)C(=O)N1OS(=O)(=O)C(F)(F)F [Example A-20, 4-bromo-1,8-naphthalimide trifluoromethanesulfonate]"
>30 wt %,>30 wt %,>30 wt %,80 L/mol/cm,242 °C,"O=C1c2cccc3c(C(F)(F)C(F)(F)C(F)(F)C(F)(F)C(F)(F)C(F)(F)C(F)(F)C(F)(F)F)ccc(c23)C(=O)N1OS(=O)(=O)C(F)(F)F [Example A-17, 4-(heptadecafluoro-n-octyl)-1,8-naphthalimide trifluoromethanesulfonate]"
3.2 wt %,3 wt %,4.5 wt %,8500 L/mol/cm,243 °C,"O=C1c2cccc3c(Br)ccc(c23)C(=O)N1OS(=O)(=O)c1c(F)c(F)c(F)c(F)c1F [Example A-40, 4-bromo-1,8-naphthalimide pentafluorobenzenesulfonate]"
1.5 wt %,1.5 wt %,2.5 wt %,6000 L/mol/cm,228 °C,"CC1(C)C2CCC1(CS(=O)(=O)ON1C(=O)c3cccc4c(Cl)ccc(c34)C1=O)C(=O)C2 (stereo not drawn) [Example A-59, 4-chloro-1,8-naphthalimide-(+)-10-camphorsulfonate]"
23 wt %,25 wt %,28 wt %,80 L/mol/cm,244 °C,"O=C1c2cccc3c(C(F)(F)C(F)(F)C(F)(F)C(F)(F)C(F)(F)C(F)(F)C(F)(F)C(F)(F)F)ccc(c23)C(=O)N1OS(=O)(=O)c1c(F)c(F)c(F)c(F)c1F [Example A-37, 4-(heptadecafluoro-n-octyl)-1,8-naphthalimide pentafluorobenzenesulfonate]"
3.5 wt %,4 wt %,4 wt %,12000 L/mol/cm,245 °C,"CC1(C)C2CCC1(CS(=O)(=O)ON1C(=O)c3cccc4c(Oc5c(F)c(F)c(F)c(F)c5F)ccc(c34)C1=O)C(=O)C2 (stereo not drawn) [Example A-45, 4-pentafluorophenoxy-1,8-naphthalimide-(+)-10-camphorsulfonate]"
